Counter-ions that a name gives are not always drawn.
system: anti-OVA-specific IgG1 subclass antibody; test: Adjuvant activity test: anti-OVA-specific IgG1 subclass antibody in serum of OVA-immunized mice (ELISA); type: in vivo, BALB/c mice; conditions: after secondary immunization, serum 2 weeks later; OVA 5 μg + compound 0.256 μmol in 5% αCD-added saline (Addavax mixed with saline at 1:1), dorsal-subcutaneous; compared to OVA single administration group
Procedure: 8-Week-old female BALB/c mice were divided into groups (N=6), and each group was primarily immunized by dorsal-subcutaneous administration of (1) ovalbumin (OVA) (5 μg) dissolved in saline as an antigen (OVA single administration group), (2) OVA 5 μg and Addavax™ (mixed with saline at 1:1) dissolved in saline (Addavax™ administration group) as positive control adjuvant, (3) OVA 5 μg and SZ137 0.256 μmol dissolved or dispersed in 5% α-cyclodextrin (hereinafter to be simply referred to as αCD)-added saline (SZ137 administration group), (4) OVA (5 μg) and SZ138 (0.256 μmol) dissolved or dispersed in 5% αCD-added saline (SZ138 administration group), (5) OVA (5 μg) and SZ142 (0.256 μmol) dissolved or dispersed in 5% αCD-added saline (SZ142 administration group), (6) OVA (5 μg) and SZ144 (0.256 μmol) dissolved or dispersed in 5% αCD-added saline (SZ144 administration group), (7) OVA (5 μg) and SZ145 (0.256 μmol) dissolved or dispersed in 5% αCD-added saline (SZ145 administration group), (8) OVA (5 μg) and SZ146 (0.256 μmol) dissolved or dispersed in 5% αCD-added saline (SZ146 administration group), (9) OVA (5 μg) and SZ147 (0.256 μmol) dissolved or dispersed in 5% αCD-added saline (SZ147 administration group), (10) OVA (5 μg) and SZ148 (0.256 μmol) dissolved or dispersed in 5% αCD-added saline (SZ148 administration group), each per mouse. Two week later, the secondary immunization was carried out by dorsal-subcutaneous administration of solutions or dispersions similar to those of the above-mentioned (1)-(10) again. Two weeks from the secondary immunization, the whole blood was extracted under anesthesia, and the obtained serum sample was measured for anti-OVA-specific IgG1 subclass antibody, anti-OVA-specific IgG2a subclass antibody, and anti-OVA-specific IgE antibody.
The measurement method of the anti-OVA-specific IgG1 subclass antibody and anti-OVA-specific IgG2a subclass antibody in Experimental Example 1 and the following Experimental Examples 2-10 is as follows.
To a 96 well plate was added 5 μg/ml OVA at 100 µl/well, and the mixture was incubated at 4° C. overnight. After incubation, the mixture was washed three times with 200 μl of PBS-T (PBS (phosphate buffered saline)+0.05% (v/v) Tween 20) per well, and blocked with 100 μl of 5% FCS (fetal calf serum)/PBS solution per well at room temperature for 1-2 hr. Thereafter, the mixture was washed three times with PBS-T (200 μl/well), a diluted serum sample (100 l/well) or the same amount of 5% FCS/PBS solution as a control was added, and the mixture was incubated at 37° C. for 1 hr. To calculate concentration of the antibody, the standard of an anti-OVA-specific IgG1 subclass antibody diluted with 2% FCS/PBS solution was added at 100 ng/ml, 50 ng/ml, 25 ng/ml, 12.5 ng/ml, 6.25 ng/ml, 3.125 ng/ml, 1.56 ng/ml, 0.781 ng/ml, 0.391 ng/ml, 0.195 ng/ml, 0.098 ng/ml, 0 ng/ml, per 1 well. When an anti-OVA-specific IgG2a subclass antibody was measured, the standard of an anti-OVA-specific IgG2a subclass antibody was added at 50 ng/ml, 25 ng/ml, 12.5 ng/ml, 6.25 ng/ml, 3.125 ng/ml, 1.56 ng/ml, 0.781 ng/ml, 0.391 ng/ml, 0.195 ng/ml, 0.098 ng/ml, 0.049 ng/ml, 0 ng/ml, per 1 well. Thereafter, similar to the samples, the mixture was washed five times with PBS-T (200 μl/well), a diluted biotinylated anti-mouse IgG1 antibody and IgG2a antibody were added (100 μl/well), and the mixture was incubated at 37° C. for 45 min. Thereafter, the mixture was washed five times with PBS-T (200 μl/well), a diluted anti-biotin-HRP antibody was added (100 μl/well), and the mixture was incubated at 37° C. for another 30 min. Thereafter, the mixture was washed five times with PBS-T (200 μl/well), TMB substrate solution was added (100 μl/well), and the mixture was incubated at room temperature for 10-15 min. Thereafter, a reaction quenching liquid (2N sulfuric acid solution) was added (50 l/well) to discontinue a color developing reaction, and the absorbance (OD Value=450 nm) was measured by a microplate reader. […]

Structure (SMILES) | anti-OVA-specific IgG1 subclass antibody production
CCCCCCCCCCCCNC(=O)[C@H](CCCNC(=N)N)N(CCCCCCC)CCCCCCC [SZ207, (2S)-2-(diheptylamino)-N-dodecyl-5-guanidino-pentanamide dihydrochloride] | significant enhancement
CCCCCCCCCCCCCCCCCC(=O)N[C@@H](CCCCN)C(=O)NCCCCCCCCCCCC.Cl [SZ185, N-[(1S)-5-amino-1-(dodecylcarbamoyl)pentyl]octadecanamide hydrochloride] | significant enhancement
CCCCCCCCCCCCNC(=O)[C@H](CCCNC(=N)N)NC(=O)OCCCCCCCCCCCC.Cl [SZ187, dodecyl N-[(1S)-1-(dodecylcarbamoyl)-4-guanidino-butyl]carbamate hydrochloride] | showed a tendency to increase
CCCCCCCCCCCCCCCCNC(=O)N[C@@H](CCCCN)C(=O)NCCCCCCCCCCCC.Cl [SZ214, (2S)-6-amino-N-dodecyl-2-(hexadecylcarbamoylamino)hexanamide hydrochloride] | significant enhancement
CCCCCCCCCCCCCCCCCCCCCC(=O)N[C@@H](CCCCNC(=N)N)C(=O)NCCCCCCCCCCCC.Cl [SZ166, N-[(1S)-1-(dodecylcarbamoyl)-5-guanidino-pentyl]docosanamide hydrochloride] | tended to increase
CCCCCCCCCCCCCCCCCC(=O)N[C@@H](CCCCNC(=N)N)C(=O)NCCCCCCCCCCCC.Cl [SZ205, N-[(1S)-1-(dodecylcarbamoyl)-5-guanidino-pentyl]octadecanamide hydrochloride] | significant enhancement
CCCCCCCCCCCCCCCCNC(=O)N[C@@H](CCCNC(=N)N)C(=O)NCCCCCCCC.Cl [SZ210, (2S)-5-guanidino-2-(hexadecylcarbamoylamino)-N-octyl-pentanamide hydrochloride] | significant enhancement
CCCCCCCCCCCCCCCCCCCCCC(=O)N[C@@H](CCCCN)C(=O)NCCCCCCCCCCCC.Cl [SZ160, N-[(1S)-5-amino-1-(dodecylcarbamoyl)pentyl]docosanamide hydrochloride] | showed a tendency to increase
CCCCCCCCCCCCCCCC(=O)N[C@@H](CCCCN)C(=O)NCCCCCCCCCCCC.Cl [SZ153, N-[(1S)-5-amino-1-(dodecylcarbamoyl)pentyl]hexadecanamide hydrochloride] | significantly increased
CCCCCCCCCCCCCCCCOC(=O)N[C@@H](CCCCN)C(=O)NCCCCCCCCCCCC.Cl [SZ189, hexadecyl N-[(1S)-5-amino-1-(dodecylcarbamoyl)pentyl]carbamate hydrochloride] | significant enhancement
CCCCCCCCCCCCCCCC(=O)N[C@H](CCCCN)C(=O)NCCCCCCCCCCCC.Cl [SZ194, N-[(1R)-5-amino-1-(dodecylcarbamoyl)pentyl]hexadecanamide hydrochloride] | showed a tendency to increase
CCCCCCCCCCCCCCCCCCCC(=O)N[C@@H](CCCNC(=N)N)C(=O)NCCCCCCCCCCCC.Cl [SZ180, N-[(1S)-1-(dodecylcarbamoyl)-4-guanidino-butyl]icosanamide hydrochloride] | significant enhancement
CCCCCCCCCCCCCCCCCC(=O)N[C@@H](CCCCN)C(=O)NCCCCCCCC.Cl [SZ184, N-[(1S)-5-amino-1-(octylcarbamoyl)pentyl]octadecanamide hydrochloride] | showed a tendency to increase
CCCCCCCCCCCCCCCC(=O)N[C@@H](CC(C)C)C(=O)NCCCCCCCC [SZ199, N-[(1S)-3-methyl-1-(octylcarbamoyl)butyl]hexadecanamide] | significant enhancement
CCCCCCCCCCCCCCCCOC(=O)N[C@@H](CCCNC(=N)N)C(=O)NCCCCCCCCCCCC.Cl [SZ150, Hexadecyl N-[(1S)-1-(dodecylcarbamoyl)-4-guanidino-butyl]carbamate hydrochloride] | significantly increased
CCCCCCCCCCCCCCCCCCCCCC(=O)N[C@@H](CCCCNC(C)=O)C(=O)NCCCCCCCCCCCC [SZ167, N-[(1S)-5-acetamide-1-(dodecylcarbamoyl)pentyl]docosanamide] | tended to increase
CCCCCCCCCCCCCCCCCCCCCC(=O)N[C@@H](CCCC)C(=O)NCCCCCCCCCCCC [SZ155, N-[(1S)-1-(dodecylcarbamoyl)pentyl]docosanamide] | showed a tendency to increase
CCCCCCCCCCCCCCCCNC(=O)N[C@@H](CC(C)C)C(=O)NCCCCCCCC [SZ201, (2S)-2-(hexadecylcarbamoylamino)-4-methyl-N-octyl-pentanamide] | tended to increase
CCCCCCCCCCCCCCCCCCCCCC(=O)N[C@@H](CC(C)C)C(=O)NCCCCCCCC [SZ198, N-[(1S)-3-methyl-1-(octylcarbamoyl)butyl]docosanamide] | tended to increase
CCCCCCCCCCCCCCCCNC(=O)N[C@H](CCCNC(=N)N)C(=O)NCCCCCCCCCCCC.Cl [SZ193, (2R)—N-dodecyl-5-guanidino-2-(hexadecylcarbamoylamino)pentanamide hydrochloride] | showed a tendency to increase
CCCCCCCCCCCCCCCCCCCCCC(=O)N1CCC(C(=O)NCCCCCCCCCCCC)CC1 [SZ156, 1-docosanoyl-N-dodecyl-piperidine-4-carboxamide] | showed a tendency to increase
CCCCCCCCCCCCCCCCOC(=O)N[C@@H](CCCCN)C(=O)NCCCCCCCC.Cl [SZ188, hexadecyl N-[(1S)-5-amino-1-(octylcarbamoyl)pentyl]carbamate hydrochloride] | showed a tendency to increase
CCCCCCCCCCCCCCCCOC(=O)N[C@@H](CC(C)C)C(=O)NCCCCCCCC [SZ203, hexadecyl N-[(1S)-3-methyl-1-(octylcarbamoyl)butyl]carbamate] | tended to increase
CCCCCCCCCCCCCCCCCC(=O)N[C@H](CCCNC(=N)N)C(=O)NCCCCCCCCCCCC.Cl [SZ191, N-[(1R)-1-(dodecylcarbamoyl)-4-guanidino-butyl]octadecanamide hydrochloride] | significant enhancement
CCCCCCCCCCCCCCCCCCCCCC(=O)N[C@@H](CCCN)C(=O)NCCCCCCCCCCCC.Cl [SZ165, N-[(1S)-4-amino-1-(dodecylcarbamoyl)butyl]docosanamide hydrochloride] | tended to increase

— US20180311342A1, “IMMUNOSTIMULATING AGENT” (AJINOMOTO CO., INC., priority 2017, published 2018)
